Measurements as given in ChEMBL document CHEMBL5126607, “Discovery and In Vivo Evaluation of ACT-660602: A Potent and Selective Antagonist of the Chemokine Receptor CXCR3 for Autoimmune Diseases” (J Med Chem, 2022).
≈ marks a conversion by molar mass, not a printed value.

How the values were obtained:
[1] = target: T1, Voltage-gated inwardly rectifying potassium channel KCNH2 (Homo sapiens, UniProt Q12809); assay: Inhibition of hERG expressed in CHO cells by Q patch-clamp method
[2] = Fractional unbound plasma concentration in Balb/c mouse at 10 mg/kg, po
[3] = Fractional unbound plasma concentration in Wistar rat at 0.5 mg/kg, iv and 2 mg/kg, po; settings: in vivo
[4] = Half life in Wistar rat at 0.5 mg/kg, iv and 2 mg/kg, po; settings: in vivo
[5] = Lipophilicity, log D of the compound at pH 7.4; settings: buffer
[6] = Metabolic stability in rat hepatocyte assessed as intrinsic clearance measured per 10^6 cells in presence of NADPH regenerating system by LC-MS/MS analysis; settings: hepatocytes
[7] = Metabolic stability in Beagle dog hepatocyte assessed as intrinsic clearance measured per 10^6 cells in presence of NADPH regenerating system by LC-MS/MS analysis; settings: hepatocytes
[8] = Fractional unbound plasma concentration in Beagle dog at 0.5 mg/kg, iv and 2 mg/kg, po
[9] = Half life in Beagle dog at 0.5 mg/kg, iv and 2 mg/kg, po; settings: in vivo
[10] = target: T1, Voltage-gated inwardly rectifying potassium channel KCNH2; assay: Inhibition of hERG by manual patch clamp method
hERG = hERG (Homo sapiens, UniProt Q12809); assay: Inhibition of hERG expressed in CHO cells 3 uM at by Q patch-clamp method relative to control; format: toxicity, cell-based; settings: CHO cells that express hERG
[11] = target: T2, C-X-C chemokine receptor type 3 (Homo sapiens, UniProt P49682)
T2 sequence (P49682 whole entry): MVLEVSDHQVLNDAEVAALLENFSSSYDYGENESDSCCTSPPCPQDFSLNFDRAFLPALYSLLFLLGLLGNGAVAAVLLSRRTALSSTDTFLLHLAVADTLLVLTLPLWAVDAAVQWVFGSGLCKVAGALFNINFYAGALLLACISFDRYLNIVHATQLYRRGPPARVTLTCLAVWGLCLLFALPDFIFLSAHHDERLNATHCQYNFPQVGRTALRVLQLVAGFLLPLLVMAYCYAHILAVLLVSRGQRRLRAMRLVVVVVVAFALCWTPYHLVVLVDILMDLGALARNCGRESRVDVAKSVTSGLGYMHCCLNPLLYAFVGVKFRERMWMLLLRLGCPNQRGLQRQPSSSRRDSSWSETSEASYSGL
Description: Antagonist activity at recombinant human CXCR3 expressed in human CHO-K1 cells co-expressing Galpha15 incubated for 10 mins by Fluo-4AM dye based FLIPR assay

[12] = target: T2, C-X-C chemokine receptor type 3; remark: listed apart in the source
Description: Inhibition of CXCR3 receptor internalization in human venous whole blood incubated for 30 mins by flow cytometer analysis

[13] = target: T2, C-X-C chemokine receptor type 3; remark: listed apart in the source
Description: Antagonist activity at recombinant human CXCR3 in human U2SO cells assessed as reduction in CXCL10-induced beta-arrestin recruitment by TANGO assay

in vivo [14] = settings: Balb/c, mouse, po, 10 mg/kg
in vivo [15] = settings: Wistar, rat, po, 2 mg/kg
in vivo [16] = settings: Balb/c, mouse, po, 10 mg/kg; remark: listed apart in the source
in vivo [17] = settings: Wistar, rat, po, 2 mg/kg; remark: listed apart in the source
in vivo [18] = settings: Balb/c, mouse, po, 10 mg/kg; remark: listed apart in the source
in vivo [19] = settings: Wistar, rat, po, 2 mg/kg; remark: listed apart in the source
in vivo [20] = settings: Wistar, rat, po, 2 mg/kg; remark: listed apart in the source
in vivo [21] = settings: beagle, dog, po, 2 mg/kg
in vivo [22] = settings: beagle, dog, po, 2 mg/kg; remark: listed apart in the source
in vivo [23] = settings: beagle, dog, po, 2 mg/kg; remark: listed apart in the source
in vivo [24] = settings: beagle, dog, po, 2 mg/kg; remark: listed apart in the source
in vitro = settings: human, microsomes
[25] = Fractional unbound plasma concentration in mouse at 1 mg/kg, iv and 10 mg/kg, po
[26] = Half life in BALB/c mouse at 1 mg/kg, iv and 10 mg/kg, po; settings: in vivo
in vivo [27] = settings: Balb/c, mouse, po, 10 mg/kg; remark: listed apart in the source
[28] = Solubility of the compound in pH 7 buffer
[29] = Solubility of the compound in FeSSIF
[30] = Solubility of the compound in FaSSIF
[31] = Fractional unbound plasma concentration in rat at 0.2 mg/kg, iv and 2 mg/kg, po
[32] = Half life in Wistar rat at 0.2 mg/kg, iv and 2 mg/kg, po; settings: in vivo

T1 sequence (Q12809 whole entry): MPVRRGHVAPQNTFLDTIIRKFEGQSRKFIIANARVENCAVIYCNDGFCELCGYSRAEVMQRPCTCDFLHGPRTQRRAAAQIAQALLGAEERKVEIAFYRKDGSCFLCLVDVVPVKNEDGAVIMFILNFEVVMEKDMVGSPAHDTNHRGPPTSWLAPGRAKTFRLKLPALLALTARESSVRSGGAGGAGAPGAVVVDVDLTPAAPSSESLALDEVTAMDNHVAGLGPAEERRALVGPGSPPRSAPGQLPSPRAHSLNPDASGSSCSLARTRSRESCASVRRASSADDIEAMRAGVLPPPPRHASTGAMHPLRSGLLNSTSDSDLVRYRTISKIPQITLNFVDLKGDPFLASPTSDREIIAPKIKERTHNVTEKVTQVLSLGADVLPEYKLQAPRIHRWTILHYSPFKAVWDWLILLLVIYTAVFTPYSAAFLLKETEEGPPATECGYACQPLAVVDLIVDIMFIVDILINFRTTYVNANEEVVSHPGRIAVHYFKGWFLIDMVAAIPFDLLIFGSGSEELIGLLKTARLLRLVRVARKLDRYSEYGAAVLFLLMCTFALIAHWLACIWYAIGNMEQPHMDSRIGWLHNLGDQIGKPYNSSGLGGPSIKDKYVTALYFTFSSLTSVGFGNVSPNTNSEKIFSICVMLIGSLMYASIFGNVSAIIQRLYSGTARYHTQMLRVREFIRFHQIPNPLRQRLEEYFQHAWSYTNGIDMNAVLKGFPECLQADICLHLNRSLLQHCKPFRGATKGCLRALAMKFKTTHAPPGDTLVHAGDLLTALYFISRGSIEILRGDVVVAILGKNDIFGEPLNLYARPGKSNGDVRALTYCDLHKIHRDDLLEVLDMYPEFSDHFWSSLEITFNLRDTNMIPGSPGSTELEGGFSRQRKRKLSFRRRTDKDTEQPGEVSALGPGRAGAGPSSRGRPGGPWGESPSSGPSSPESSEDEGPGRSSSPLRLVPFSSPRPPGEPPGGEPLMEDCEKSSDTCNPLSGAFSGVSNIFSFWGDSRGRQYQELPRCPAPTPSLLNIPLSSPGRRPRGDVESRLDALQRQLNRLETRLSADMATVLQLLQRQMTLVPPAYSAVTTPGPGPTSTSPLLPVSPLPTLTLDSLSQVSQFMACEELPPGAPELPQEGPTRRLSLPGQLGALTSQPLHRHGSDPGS
hERG, sequence (Q12809 whole entry): as above

Row | Structure (SMILES) | IC50 [1] [nM] | half-life [4] [min] | logD [5] | hepatocyte CLint [6] [µL/min/1e6 cells] | hepatocyte CLint [7] [µL/min/1e6 cells] | half-life [9] [min] | IC50 [11] [nM] | IC50 [12] [nM] | IC50 [13] [nM] | AUC (in vivo [14]) [ng·h/mL] | AUC (in vivo [15]) [ng·h/mL] | Cmax (in vivo [16]) [ng/mL] | Cmax (in vivo [17]) [ng/mL] | Tmax (in vivo [18]) [min] | Tmax (in vivo [19]) [min] | bioavailability (in vivo [20]) [%] | AUC (in vivo [21]) [ng·h/mL] | Cmax (in vivo [22]) [ng/mL] | Tmax (in vivo [23]) [min] | microsomal CLint at 1 µM (in vitro) [µL/min/mg] | also measured
1 | CCOc1ncc(-c2nc(C(F)(F)F)sc2N2CCN(C(=O)Cn3nc(C)nc3C)[C@H](C)C2)cn1 | > 20000 | 372 | 2.8 | < 2 | 5.1 | 60 | 7 | 364 | 173 | 63600 | 2850 | 11600 | 574 | 30 | 30 | 52 | 861 | 415 | 30 | < 10 | fraction unbound [2]: 0.023; fraction unbound [3]: 0.101; fraction unbound [8]: 0.328; IC50 [10]: 44000 nM; inhibition at 3 µM (hERG): 4%; bioavailability (in vivo [24]): 52%
2 | C[C@@H]1CN(c2scnc2-c2nc3ccccc3[nH]2)CCN1C(=O)Cn1cnc2cccnc21 | 2200 |  |  |  |  |  | 5.9 | 554 | 830 | 60.7 |  | 95.2 |  | 60 |  |  |  |  |  | 12 | fraction unbound [25]: 0.122; half-life [26]: 6 min; bioavailability (in vivo [27]): 4%
3 | Cc1nc(C)n(CC(=O)N2CCN(c3sc(C(F)(F)F)nc3-c3cnc(C(F)(F)F)nc3)C[C@H]2C)n1 |  | 426 | 2.9 | < 2 | < 2 | 870 |  |  |  |  | 14000 |  | 1520 |  | 30 | 80 | 20000 | 1380 | 60 | < 10 | solubility [28]: 387 µg/mL (≈ 724 µM); solubility [29]: 530 µg/mL (≈ 992 µM); solubility [30]: 450 µg/mL (≈ 842 µM); bioavailability (in vivo [24]): 80%
4 | C[C@@H]1CN(c2sc(C(F)(F)F)nc2-c2nc3ccccc3[nH]2)CCN1C(=O)Cn1cnc2cccnc21 | 1750 |  |  |  |  |  | 1.6 | 70 | 31 |  | 191 |  | 91.3 |  | 36 | 7 |  |  |  | 89 | fraction unbound [25]: 0.01; fraction unbound [31]: 0.017; half-life [32]: 48 min
